One molecule from patent US11219625B2, “Inhibitors of N-linked glycosylation and methods using same” (YALE UNIVERSITY, priority 2015, dated 2022) can be followed below.

Structures are written as SMILES.

For the experiment, the system named is EGFR. The experiment in a line: Surface biotinylation of EGFR, H3255 cells. It is filed as cell-based. The note with it: H3255, 10 μM NGI-1, 24 h. The protocol: FIGS. 3A-3F illustrate the finding that NGI-1 disrupts EGFR glycosylation and cell surface expression. FIG. 3A illustrates EGFR western blots from H3255 treated with or without 10 μM NGI-1 for 24 h. Molecular weight size shifts are compared to PNGase digestion and tunicamycin treatment alone. FIG. 3B illustrates EGFR localization in H3255 cells after 24 h 10 μM NGI-1 treatment analyzed by western blot. Plasma membrane proteins present on the surface of H3255 cells were biotinylated using a non-permeable form of biotin, sulfo-NHS—SS-biotin, and precipitated by streptavidin agarose beads. Biotin-labeled plasma membrane proteins and the fraction of non-biotinylated proteins were subjected to SDS-PAGE and analyzed by western blot against EGFR. FIG. 3C illustrates EGFR localization in H3255 cells after 24 h 10 μM NGI-1 treatment analyzed by confocal microscopy. H3255 cells were subjected to immunofluorescence for EGFR protein (red) counterstained with (CRT; green) and colocalization was determined by confocal microscopy. Nuclei were counterstained with ToPro3 (cyan). […] Bar, 10 μm. FIG. 3D illustrates quantification of colocalization using Image J Colormap Software. […] ITB1 localization after 10 μM NGI-1 for 48 h analyzed by (FIG. 3E) surface biotinylation (FIG. 3F) confocal microscopy (green). […]

Regarding `Cc1cnc(NC(=O)c2cc(S(=O)(=O)N(C)C)ccc2N2CCCC2)s1` [NGI-1, 5-(N,N-Dimethylsulfamoyl)-N-(5-methylthiazol-2-yl)-2-(pyrrolidin-1-yl)benzamide], the “EGFR distribution, biotinylated vs non-biotinylated fraction” value is listed as “predominantly found in the non-biotinylated intracellular fraction”.
